{
  "source": "paper PMC7104545",
  "about": "“Unusually persistent Gαi-signaling of the neuropeptide Y2 receptor depletes cellular Gi/o pools and leads to a Gi-refractory state” (Cell Communication and Signaling : CCS, 2020)",
  "key": {"hY2R": {"target": "T1, hY2R (Homo sapiens, UniProt P49146)", "T1 construct": "expressed in transfected cells; host or cells: HEK293 (transient transfection, pEYFP-N1 vector)", "T1 sequence (P49146 1-381)": "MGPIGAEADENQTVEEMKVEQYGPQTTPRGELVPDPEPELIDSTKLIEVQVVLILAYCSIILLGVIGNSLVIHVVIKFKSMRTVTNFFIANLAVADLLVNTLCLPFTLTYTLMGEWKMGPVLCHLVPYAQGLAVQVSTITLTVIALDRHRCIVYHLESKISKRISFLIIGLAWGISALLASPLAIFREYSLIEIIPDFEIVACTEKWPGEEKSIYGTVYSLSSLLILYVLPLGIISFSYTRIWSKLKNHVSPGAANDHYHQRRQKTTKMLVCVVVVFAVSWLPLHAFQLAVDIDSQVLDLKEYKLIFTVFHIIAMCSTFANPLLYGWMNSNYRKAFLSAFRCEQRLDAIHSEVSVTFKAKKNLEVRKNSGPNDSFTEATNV", "test": "cAMP assay, HEK293 co-transfected hY2R/hY1R, Y2R addressed", "format": "cell-based", "experimental": "(§1) HEK293 cells were grown in 25 cm^2 culture flask up to 70–80% confluence in a humidified atmosphere at 37 °C and 5% CO2. Co-transfection of 3000 ng pGL4.29[luc2P/CRE/Hygro] (Promega) plasmid and 3000 ng plasmid encoding for the respective receptor was performed using Metafectene® Pro (Biontex Laboratories GmbH) according to the manufacturer’s protocol. One-day post-transfection cells were seeded into white poly-D-lysine covert 96-well plates (Greiner Bio-one) and incubated overnight at 37 °C. For pertussis toxin experiments, medium was supplied with certain concentration (100 ng/ml, 250 ng/ml, 500 ng/ml) of pertussis toxin (Sigma). Two-day post-transfection cAMP experiments were performed with the help of ONE-Glo substrate (Promega), allowing luminescence measurement with the Tecan Infinite M200. […] For recycling, cells were incubated for 60 min with DMEM supplemented with 100 μg/ml CHX (Merck/Calbiochem®). […] As a positive control only 5 μM forskolin were added to the wells. After incubation, medium was exchanged by 30 μl fresh DMEM (RT). 30 μl ONE-Glo substrate was added and after 5 min of incubation the cAMP level was measured by detecting the luminescence. For co-transfection experiments the transfection of two receptors simultaneously and pGL4.29[luc2P/CRE/Hygro] plasmid were performed in a ratio 1:1:1, keeping the total amount of 6000 ng. […] The second stimulation was performed in a peptide concentration range, addressing the respective receptor that was missed in the first round."}, "[1]": {"target": "T2, neuropeptide Y2R (endogenous in SH-SY5Y cells) (Homo sapiens, UniProt P49146)", "T2 construct": "SH-SY5Y cells that endogenously expressing Y2R; endogenous in cells; host or cells: SH-SY5Y (transiently transfected with chimeric Gqi protein only)", "T2 sequence (P49146 1-381)": "T1 sequence (P49146 1-381)", "test": "Ca^2+-flux assay, SH-SY5Y cells transfected with chimeric Gqi", "format": "cell-based", "quoted_text": "(§2) HEK293 cells were grown in 25 cm^2 culture flask up to 70–80% confluence in a humidified atmosphere at 37 °C and 5% CO2. Co-transfection of 800 ng plasmid encoding the GαΔ6qi4myr protein and 3200 ng plasmid encoding for the Y2R fused C-terminally to eYFP was performed by using Metafectene® Pro (Biontex Laboratories GmbH) according to manufacturer’s protocol. One-day post transfection, cells were re-seeded (100.000 cells/well) into a black poly-D-lysine covert 96-well plates (Greiner Bio-one) and incubated overnight at 37 °C. Two-days post transfection Ca^2+ experiments were performed with the help of the FLIPR® Calcium Assay Kit (Molecular Devices). […] For recycling, cells were incubated for 60 min with assay buffer (20 mM HEPES, 2.5 mM Probenecid in HBSS, pH 7.5) supplemented with 100 μg/ml CHX (Merck/Calbiochem®) and 1 μM Fluor-2-AM staining dye. […] For the GαΔ6qi4myr overexpression experiments, the transfection ratio between receptor DNA and G protein DNA was varied from the initial concentration 4:1, using a total DNA amount of 4000 ng. By keeping the G protein amount equal to 800 ng, the resulting discrepancy was filled with pcDNA3."}, "adenylyl cyclase": {"system": "adenylyl cyclase", "test": "Impact of Ca^2+ and PKC on cellular cAMP level, HEK293-hY2R-eYFP", "format": "cell-based", "conditions": "10 µM PKC inhibitor 30 min prior to stimulation with peptide; n≥2"}, "[2]": {"target": "T3, human neuropeptide Y2 receptor (hY2R) (Homo sapiens, UniProt P49146)", "T3 sequence (P49146 1-381)": "T1 sequence (P49146 1-381)", "set-up": "expressed in transfected cells; host or cells: HEK293 (transient transfection, pEYFP-N1 vector)", "conditions": "ref [29]; cited from earlier work", "description": "Contrary to the obviously low arrestin binding affinity, the unoccupied receptor apparently exists in a conformation that strongly favors G protein coupling. Kaiser et al. recently reported two different affinity states concerning Y2R binding properties. […]."}, "[3]": {"target": "T3, human neuropeptide Y2 receptor (hY2R)", "test": "cAMP reporter gene assay, HEK293-hY2R", "format": "cell-based", "set-up": "expressed in transfected cells; host or cells: HEK293 (transient transfection, pEYFP-N1 vector)", "experimental": "as §1"}, "[4]": {"target": "T3, human neuropeptide Y2 receptor (hY2R)", "test": "TAMRA-NPY uptake in second stimulation, live cell microscopy (HEK293-HA-Y2R-eYFP)", "format": "cell-based", "set-up": "expressed in transfected cells; host or cells: HEK293 (transient transfection, pEYFP-N1 vector)", "conditions": "n ≥ 3", "quoted_text": "HEK293 or HEK293-HA-Y2R-eYFP were re-seeded (150.00/well) into sterile poly-D-lysine covered μ-slide 8 wells (Ibidi) and grown in a humidified atmosphere at 37 °C and 5% CO2. For transfection, cells were cultured up to 70–80% confluency and subsequently transfected with 1.0 μg total DNA using Lipofectamine® 2000 transfection reagent (Invitrogen) according to the manufacturer’s protocol. For single transfection in empty HEK293 cells 1.0 μg of HA-Y2R-eYFP-N1 plasmid DNA was used. At the experimental day cells were starved in Opti-MEM® reduced serum medium (Gibco®) containing Hoechst33342 (Sigma) for 30 min at 37 °C. LysoTracker®Blue with a final concentration of 1 μM was used for visualization of the lysosomes. […] For recycling studies, cells were washed twice with acidic wash buffer (50 mM glycine, 100 mM NaCl, pH 3.0) and neutralized once with Hank’s balanced salt solution (HBSS; PAA), followed by a recovery period for 60 min in ligand-free media supplemented with 100 μg/ml cycloheximide (CHX; Merck/Calbiochem®) and with or without 20 mM NH4Cl as an expression inhibitor and recycling inhibitor respectively. […] All microscopy images were obtained using the AxioObserver.Z1 microscope equipped with an ApoTome imaging system (Zeiss, Jena). Within one experimental setup, all images were taken using a fixed exposure time for the single fluorescence channels.\nMicroscopy pictures were processed with the standard software Axio vision 4.8 and exported as an 8 Bit TIFF file (Tagged Image File Format). The open access software Image J was applied for the analysis of the pictures. For determination of mean cell surface fluorescence (MCSF) ten nonadjacent cells per image were measured using the segmented line function. Calculation of the relative TAMRA fluorescence, the Raw Intensity Density was measured under distinct conditions. The particular background fluorescence of each image was subtracted after every evaluation. Since this program uses the single gray levels for evaluation, the calculated values were evaluated retroactively as relative fluorescence intensity and analyzed with the statistical program GraphPad Prism."}, "[5]": {"system": "HEK293-HA-hY2R-eYFP cells", "test": "Intracellular fate of TAMRA-NPY (live cell microscopy, lysosomal stain, EEA1 immunostaining)", "format": "cell-based, human", "experimental": "HEK293-HA-hY2R-eYFP cells were seeded on poly-D-lysine coated coverslips (500.000 /well). […] Gradually preparation of all samples was performed in 10 min intervals of 2% paraformaldehyde (PFA)/PBS on ice, 2% PFA/PBS at RT and finally 4% PFA/PBS at RT. Samples were blocked and permeabilized with 10% BSA/0.1% TritonX-100/PBS for 1 h at RT. Incubation with anti-EEA1 (Santa Cruz, sc-33,585) (1:100) in 1% BSA/0.01% TritonX-100/PBS occurred overnight at 4 °C. The next day, samples were treated with anti-rabbit-AF350 (InvitrogenTM) (1:400) in 1% BSA/0.01% TritonX- 100/PBS for 2 h at RT and mounted with Fluoromount-G®."}, "hY4R": {"system": "hY4R", "test": "Ca^2+-flux assay, HEK293 co-transfected hY2R/hY4R, PP to address Y4R", "format": "cell-based, human", "conditions": "1 μM NPY first, acidic wash, 60 min recovery; Fig. S3B; n≥2", "quoted_text": "as §2"}, "[6]": {"system": "melanocortin 1 receptor (MCR1)", "test": "cAMP assay, HEK293 co-transfected hY2R/melanocortin 1 receptor", "format": "cell-based", "conditions": "PTX present; first stimulation 1 μM NPY", "experimental": "HEK293 cells were grown in 25 cm^2 culture flask up to 70–80% confluence in a humidified atmosphere at 37 °C and 5% CO2. Co-transfection of 3000 ng pGL4.29[luc2P/CRE/Hygro] (Promega) plasmid and 3000 ng plasmid encoding for the respective receptor was performed using Metafectene® Pro (Biontex Laboratories GmbH) according to the manufacturer’s protocol. One-day post-transfection cells were seeded into white poly-D-lysine covert 96-well plates (Greiner Bio-one) and incubated overnight at 37 °C. For pertussis toxin experiments, medium was supplied with certain concentration (100 ng/ml, 250 ng/ml, 500 ng/ml) of pertussis toxin (Sigma). Two-day post-transfection cAMP experiments were performed with the help of ONE-Glo substrate (Promega), allowing luminescence measurement with the Tecan Infinite M200. […] For recycling, cells were incubated for 60 min with DMEM supplemented with 100 μg/ml CHX (Merck/Calbiochem®). […] As a positive control only 5 μM forskolin were added to the wells. After incubation, medium was exchanged by 30 μl fresh DMEM (RT). 30 μl ONE-Glo substrate was added and after 5 min of incubation the cAMP level was measured by detecting the luminescence. For co-transfection experiments the transfection of two receptors simultaneously and pGL4.29[luc2P/CRE/Hygro] plasmid were performed in a ratio 1:1:1, keeping the total amount of 6000 ng. […]"}, "HEK293-hY2R cells": {"system": "HEK293-hY2R cells", "test": "Cell toxicity by microscopy (cell morphology)", "format": "cell-based, human", "conditions": "PTX 250 ng/ml"}},
  "note": "“Also recorded” adds a separate entry of the source. Where a SMILES comes first, the peptide text is derived from it. [ ]: non-standard residue; d: D form. Ahx = NCCCCCC(=O)O",
  "data": [
    {"compound": "CC[C@H](C)[C@H](NC(=O)[C@H](Cc1ccc(O)cc1)NC(=O)[C@H](Cc1c[nH]cn1)NC(=O)[C@H](CCCNC(=N)N)NC(=O)CCCCCNC(=O)[C@H](CCCCN)NC(=O)[C@H](CO)NC(=O)[C@@H]1CCCN1C(=O)[C@@H](N)Cc1ccc(O)cc1)C(=O)N[C@@H](CC(N)=O)C(=O)N[C@@H](CC(C)C)C(=O)N[C@H](C(=O)N[C@H](C(=O)N[C@@H](CCCNC(=N)N)C(=O)N[C@@H](CCC(N)=O)C(=O)N[C@@H](CCCNC(=N)N)C(=O)N[C@@H](Cc1ccc(O)cc1)C(N)=O)[C@@H](C)O)[C@@H](C)CC", "note": "[Ahx^5–24-NPY] (H-YPSK[Ahx]RHYINLITRQRY-NH2)", "values": [
      {"measurement": "Emax", "setting": "hY2R; HEK293, second stimulation after 1 μM F^7,P^34-NPY and 60 min recovery, Ahx^5–24-NPY control curve = 100%", "value": 74, "unit": "%"}
    ]},
    {"compound": "CC[C@H](C)[C@H](NC(=O)[C@H](Cc1ccc(O)cc1)NC(=O)[C@H](Cc1cnc[nH]1)NC(=O)[C@H](CCCNC(=N)N)NC(=O)CCCCCNC(=O)[C@H](CCCCN)NC(=O)[C@H](CO)NC(=O)[C@@H]1CCCN1C(=O)[C@@H](N)Cc1ccc(O)cc1)C(=O)N[C@@H](CC(N)=O)C(=O)N[C@@H](CC(C)C)C(=O)N[C@H](C(=O)N[C@H](C(=O)N[C@@H](CCCNC(=N)N)C(=O)N[C@@H](CCC(N)=O)C(=O)N[C@@H](CCCNC(=N)N)C(=O)N[C@@H](Cc1ccc(O)cc1)C(N)=O)[C@@H](C)O)[C@@H](C)CC", "note": "[Ahx^5–24-NPY] (H-YPSK[Ahx]RHYINLITRQRY-NH2)", "values": [
      {"measurement": "EC50", "setting": "hY2R; Y1R/Y2R co-transfected HEK293, no first stimulation", "value": 14, "unit": "nM"},
      {"measurement": "EC50", "setting": "hY2R; second stimulation after 1 μM F^7,P^34-NPY and 60 min recovery", "value": 28, "unit": "nM"},
      {"measurement": "EC50", "setting": "[1]; no first stimulation, SH-SY5Y + Gqi, n ≥ 3", "value": 41.9, "unit": "nM"}
    ]},
    {"compound": "CN(C)CCCn1cc(C2=C(c3c[nH]c4ccccc34)C(=O)NC2=O)c2ccccc21", "note": "[Bisindolylmaleimide I]", "values": [
      {"measurement": "effect of PKC inhibitor on adenylyl cyclase inhibition", "setting": "adenylyl cyclase", "value": "abolished inhibitory effect of adenylyl cyclases and Y2R downstream signaling"}
    ]},
    {"compound": "Nc1nc2c(ncn2[C@@H]2O[C@H](COP(=O)(O)OP(=O)(O)OP(O)(O)=S)[C@@H](O)[C@H]2O)c(=O)[nH]1", "note": "[GTPγS, Guanosine 5′-O-[gamma-thio] triphosphate]", "values": [
      {"measurement": "effect of GTPγS on total binding", "setting": "[2]", "value": "loss in total binding"}
    ]},
    {"compound": "C=C[C@@]1(C)CC(=O)[C@]2(O)[C@@]3(C)[C@@H](O)CCC(C)(C)[C@@H]3[C@H](O)[C@H](OC(C)=O)[C@@]2(C)O1", "note": "[forskolin]", "values": [
      {"measurement": "increase of baseline intracellular cAMP by forskolin", "setting": "[3]; 5 μM forskolin, Y2R-expressing HEK293, without NPY", "value": "~ 10 fold"}
    ]},
    {"compound": "TAMRA-NPY: fluorescent NPY derivative, 5-carboxytetramethylrhodamine (TAMRA)-NPY", "values": [
      {"measurement": "TAMRA-NPY internalization in second stimulation, comparison 0 RE vs 60 RE ± NH4Cl", "setting": "[4]; 1 μM NPY first, then 100 nM TAMRA-NPY 60 min", "value": "no difference in TAMRA internalization"},
      {"measurement": "TAMRA-NPY uptake, 0 RE", "setting": "[4]; 1 μM NPY, acidic wash, direct second stimulation 100 nM TAMRA-NPY 60 min, 37 °C, control = 100%", "value": "45 ± 5", "unit": "%"},
      {"measurement": "TAMRA-NPY uptake, 60 RE", "setting": "[4]; 1 μM NPY, wash, 60 min recovery with CHX, then 100 nM TAMRA-NPY 60 min, control = 100%", "value": "49 ± 4", "unit": "%"},
      {"measurement": "TAMRA-NPY uptake, 60 RE + NH4Cl", "setting": "[4]; as 60 RE with 20 mM NH4Cl during recovery, control = 100%", "value": "48 ± 46", "unit": "%"},
      {"measurement": "localisation after 60 min recycling period", "setting": "[5]; 100 nM TAMRA-NPY, lysosomal marker LysoTracker Blue", "value": "degradation in lysosomes; also recorded: co-localized with the lysosomal marker"},
      {"measurement": "localisation in early endosomes", "setting": "[5]; EEA1 immunostaining", "value": "intracellular accumulation of TAMRA-NPY in early and sorting endosomes"},
      {"measurement": "co-internalization with receptor", "setting": "[5]; TAMRA-NPY 60 min, 37 °C", "value": "Co-internalization of the ligand-receptor-complex was observed"}
    ]},
    {"compound": "pancreatic polypeptide [PP]", "values": [
      {"measurement": "Ca^2+ response of PP after first stimulation with NPY", "setting": "hY4R", "value": "obvious loss in activity, since no Ca^2+response was measured"},
      {"measurement": "Ca^2+ activity in SH-SY5Y", "setting": "[1]; SH-SY5Y, endogenous background, n≥3", "value": "no activity"}
    ]},
    {"compound": "pertussis toxin [PTX]", "values": [
      {"measurement": "effect on inhibitory effect of Y2R (MCR1/Y2R cells)", "setting": "[6]", "value": "completely abolished; also recorded: abolishing the slight inhibitory effect"},
      {"measurement": "cell toxicity (cell morphology)", "setting": "HEK293-hY2R cells", "value": "no differences in cell morphology were observed"},
      {"measurement": "effect on maximal forskolin-induced cAMP response after NPY", "setting": "[3]; PTX 250 ng/ml, treatment of cells with NPY first", "value": "AC-activity is rescued; also recorded: clearly rescued the maximal cAMP response; also recorded: adenylyl cyclase was still activatable by forskolin"},
      {"measurement": "effect of varying PTX concentrations on AC-activity", "setting": "[3]; PTX 100, 250, 500 ng/ml, compared to control curve (Fig. 3f)", "value": "caused inhibition of AC-activity compared to control curve"}
    ]}
  ]
}
